Measurements published in US20140088085A1, “Substituted Benzoazepines As Toll-Like Receptor Modulators” (ARRAY BIOPHARMA, INC, priority 2011, published 2014).
Like-named read-outs stand apart in the source and are kept apart here.

Key:
hTLR8 = target: T1, hTLR8 (Homo sapiens, UniProt Q9NR97); test: HEK-293 hTLR8 transfectant NF-κB SEAP reporter antagonist assay; type: cell-based
T1 construct: host or cells: HEK293 cells stably transfected with hTLR8
T1 sequence (Q9NR97 27-1041): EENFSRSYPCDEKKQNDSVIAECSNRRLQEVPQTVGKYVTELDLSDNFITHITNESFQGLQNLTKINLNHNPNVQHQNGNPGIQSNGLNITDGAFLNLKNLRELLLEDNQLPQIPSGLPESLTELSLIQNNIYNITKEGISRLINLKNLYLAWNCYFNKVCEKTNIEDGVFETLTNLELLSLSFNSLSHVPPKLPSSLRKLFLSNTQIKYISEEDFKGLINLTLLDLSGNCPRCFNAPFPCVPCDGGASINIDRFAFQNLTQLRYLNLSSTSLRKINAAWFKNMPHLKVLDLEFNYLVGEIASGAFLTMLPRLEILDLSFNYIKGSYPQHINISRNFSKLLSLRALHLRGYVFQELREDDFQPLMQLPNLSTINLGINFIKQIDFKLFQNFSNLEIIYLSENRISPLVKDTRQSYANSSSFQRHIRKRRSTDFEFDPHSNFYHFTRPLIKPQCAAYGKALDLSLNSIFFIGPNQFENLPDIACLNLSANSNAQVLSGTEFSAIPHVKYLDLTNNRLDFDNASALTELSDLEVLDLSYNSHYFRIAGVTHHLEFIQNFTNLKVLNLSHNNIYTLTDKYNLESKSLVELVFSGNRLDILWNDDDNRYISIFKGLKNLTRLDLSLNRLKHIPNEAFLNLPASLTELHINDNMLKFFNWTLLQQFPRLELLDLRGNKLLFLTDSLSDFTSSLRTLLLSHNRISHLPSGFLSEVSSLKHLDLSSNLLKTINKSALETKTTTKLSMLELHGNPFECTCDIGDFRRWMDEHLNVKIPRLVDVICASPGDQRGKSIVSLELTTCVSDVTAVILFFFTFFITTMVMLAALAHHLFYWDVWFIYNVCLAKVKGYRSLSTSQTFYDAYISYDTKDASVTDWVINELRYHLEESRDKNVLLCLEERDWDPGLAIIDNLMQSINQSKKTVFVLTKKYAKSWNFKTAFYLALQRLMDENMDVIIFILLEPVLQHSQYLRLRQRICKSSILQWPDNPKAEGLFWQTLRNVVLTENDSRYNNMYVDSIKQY
Protocol: The HEK-293 hTLR transfectant assay employs HEK293 cells stably transfected with various hTLRs and transiently co-transfected with a plasmid containing an NF-κB driven secreted embryonic alkaline phosphate (SEAP) reporter gene. Stimulation of TLRs activates their downstream signaling pathways and induces nuclear translocation of the transcription factor NF-κB. Reporter gene activity is then measured using a spectrophotometric assay.
For the TLR8 antagonist assays, cells are transiently transfected with the reporter gene on Day 1 per the supplier's instructions. Antagonist compounds are added to the cultures on Day 2 followed by addition of a TLR8 agonist approximately 2 hours later. Cultures are incubated overnight and SEAP activity is measured on Day 3.
In a typical assay, 50,000 HEK239 hTLR8 cells are seeded per culture well and transiently transfected with the SEAP reporter gene. Antagonists are added to cultures in culture medium and […] DMSO over a concentration range of 0.1 nanomolar to 10 micromolar. TLR8 agonists are added to cultures 2 hours later at a fixed concentration (e.g., 1 micromolar or 10 micromolar of Compound A) and cultures are then incubated for 16-24 hrs at 37° C. in a humidified CO incubator. Antagonists are also evaluated for activity in the absence of agonist.
TLR8 antagonist activity at 25 μM is presented in Table 2, where + denotes a % inhibition of 20-39, ++ denotes a % inhibition of 40-59, +++ denotes a % inhibition of 60-79 and ++++ denotes a % inhibition of 80-99. In some cases, antagonist activity was assessed at lower concentrations, for example, at 8.3, 2.8, or less than 1 μM.
TLR8 antagonist activity was measured in a hTLR8 assay format, measuring IC50 values. Compounds were incubated with hTLR8 reporter cells for two hours, then 1 μM Compound A was added to induce TLR8 overnight. IC50 were then calculated.

[1] = system: human peripheral blood mononuclear cells (PBMCs); test: Human PBMC assay: IL-8 production stimulated with CL075 (ELISA); type: cell-based; conditions: 3 to 1000 nM antagonist 2 h, then CL075 100 ng/mL (400 nM) overnight, FIG. 1, one donor
Protocol: PBMCs contain a mixture of cells including monocytes and myeloid dendritic cells (mDCs) that express TLR8. […] The ability of TLR8 antagonists to inhibit […] production in human PBMCs was evaluated. […] Data shown in FIG. 1 are a representative experiment from one donor evaluated in duplicate culture wells. Increasing concentrations (from 3 to 1000 nM) of Compounds 3348, 2987, 3261, 3387, and 3448 (labeled as VTX-3348, VTX-2987, VTX-3261, VTX-3387, VTX-3448 in FIG. 1) were added to human PBMCs (50,000 cells/well in RPMI) and incubated for 2 hours in a 37° C. humidified CO2 incubator. […] At the end of the incubation, cells were centrifuged and cell culture supernatants were analyzed for IL-8 by ELISA (eBiosciene kit) per the manufacturer's instructions. The absorbance (OD 450 nm) representative of IL-8 levels is shown on the y-axis of FIG. 1.
The experiment shown in FIG. 1 was repeated in multiple donors and with additional TLR8 antagonist molecules (see FIG. 2). […] Percent inhibition is shown on the y-axis and concentrations of TLR8 antagonists (3-1000 nM) are shown on the x-axis in FIG. 2.

[2] = IC50, nM, vs. VTX-378 1 μM, agonist VTX-378 at 1 μM

Row | IC50 (hTLR8; [2]) [nM] | IC50 (hTLR8; IC50, nM, vs. VTX-378 10 μM, agonist VTX-378 at 10 μM) [nM] | IC50 (hTLR8; IC50, nM, vs. 3M002 10 μM, agonist 3M002 at 10 μM) [nM] | IC50 (hTLR8; agonist VTX-378 at 0.5 μM, read-out: IC50, nM, vs. VTX-378 0.5 μM) [nM] | Structure (SMILES) | inhibition of IL-8 production [1]
1 | < 1000 | 1000 to 10000 |  |  | CCCN(CCC)C(=O)C1=Cc2cc(-c3ccc(C(=O)N4CCCC4)cc3)ccc2N=C(N)C1 [Compound 2987] | reduced in a dose dependent fashion
2 | < 1000 |  | < 1000 | < 1000 | CCOC(=O)C1=Cc2cc(-c3ccc(C(=O)N4CCCC4)cc3)ccc2N=C(N)C1(C)C [Compound 3348] | reduced in a dose dependent fashion
